Target: T1, PLCγ2-P522R (Homo sapiens, UniProt P16885, P522R)
T1 construct: gene PLCG2
T1 sequence (P16885 1-1195 P522R): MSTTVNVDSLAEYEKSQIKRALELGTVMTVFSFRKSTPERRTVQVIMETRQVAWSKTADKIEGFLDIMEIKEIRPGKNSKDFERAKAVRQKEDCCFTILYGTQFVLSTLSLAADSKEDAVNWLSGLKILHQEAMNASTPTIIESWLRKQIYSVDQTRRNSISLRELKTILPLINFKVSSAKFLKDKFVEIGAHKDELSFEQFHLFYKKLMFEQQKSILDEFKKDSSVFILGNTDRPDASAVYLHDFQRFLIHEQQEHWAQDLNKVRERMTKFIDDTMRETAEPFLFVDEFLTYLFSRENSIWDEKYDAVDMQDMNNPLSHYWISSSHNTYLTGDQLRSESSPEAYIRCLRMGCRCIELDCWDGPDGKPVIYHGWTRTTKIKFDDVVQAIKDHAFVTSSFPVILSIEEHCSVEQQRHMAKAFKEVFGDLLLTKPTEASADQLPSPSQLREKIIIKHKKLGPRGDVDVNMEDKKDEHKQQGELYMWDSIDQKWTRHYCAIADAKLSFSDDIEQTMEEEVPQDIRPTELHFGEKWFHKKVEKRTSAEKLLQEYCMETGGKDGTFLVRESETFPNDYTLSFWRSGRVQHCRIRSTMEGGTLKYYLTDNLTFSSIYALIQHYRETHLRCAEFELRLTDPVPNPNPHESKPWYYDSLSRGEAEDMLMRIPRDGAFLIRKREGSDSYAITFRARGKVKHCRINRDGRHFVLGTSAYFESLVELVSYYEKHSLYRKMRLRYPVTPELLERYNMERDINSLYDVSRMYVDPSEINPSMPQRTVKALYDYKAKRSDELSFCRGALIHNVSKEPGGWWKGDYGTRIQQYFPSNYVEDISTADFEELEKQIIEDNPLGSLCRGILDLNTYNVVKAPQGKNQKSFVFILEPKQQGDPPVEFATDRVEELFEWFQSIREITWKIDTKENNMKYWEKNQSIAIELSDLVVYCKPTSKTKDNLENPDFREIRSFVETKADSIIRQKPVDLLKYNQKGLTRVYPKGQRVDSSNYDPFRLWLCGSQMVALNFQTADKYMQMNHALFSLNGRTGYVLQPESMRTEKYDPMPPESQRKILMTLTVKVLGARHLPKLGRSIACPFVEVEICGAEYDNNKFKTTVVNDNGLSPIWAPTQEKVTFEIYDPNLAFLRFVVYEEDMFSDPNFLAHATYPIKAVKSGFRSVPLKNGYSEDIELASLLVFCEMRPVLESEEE
Test: fluorogenic micelle enzyme assay
Type: biochemical

Q: `CCCCCCCCCCCCCCCCOc1cc(COC(=O)Nc2ccc3c(C(F)(F)F)cc(=O)oc3c2)ccc1OP(=O)(O)O[C@@H]1[C@H](O)[C@H](O)[C@@H](OP(=O)(O)O)[C@H](OP(=O)(O)O)[C@H]1O` [C16CF3-coumarin] was tested. Which “fluorogenic micelle enzyme assay” value did it give?
A: both PLCγ1-D1665H and PLCγ2-P522R were able to process the C16CF3-coumarin substrate faster than the corresponding wild-type enzymes

From article PMC10980208, “A novel micellular fluorogenic substrate for quantitating the activity of 1-phosphatidylinositol 4,5-bisphosphate phosphodiesterase gamma (PLCγ) enzymes” (PLOS ONE, 2024)
